70 molecules from ChEMBL document CHEMBL4402609, “Optimization of Hydantoins as Potent Antimycobacterial Decaprenylphosphoryl-β-d-Ribose Oxidase (DprE1) Inhibitors” (J Med Chem, 2020) can be followed below.

This data set can be described thus: Lipophilicity, log D of compound at pH 7.4 by chromatographic method. It counts as physicochemical. The settings on record: buffer.
With `C[C@]1(c2ccc(S(N)(=O)=O)cc2)NC(=O)N(CC(=O)c2ccc(F)cc2F)C1=O`, the chromatographic logD turned out to be 3.17.

With `C[C@@]1(c2ccc(S(N)(=O)=O)cc2)NC(=O)N(CC(=O)c2ccc(F)cc2F)C1=O`, the chromatographic logD worked out at 3.17.

Molecule `CC1(c2ccc(S(=O)(=O)Nc3ccccc3)cc2)NC(=O)N(CC(=O)c2ccc(F)cc2F)C1=O` (racemic) registered a chromatographic logD of 5.03.

Turning to `CCCCS(=O)(=O)Nc1ccc(C2(C)NC(=O)N(CC(=O)c3ccc(F)cc3F)C2=O)cc1` (racemic), the chromatographic logD amounted to 4.96.

As to `CC1(c2ccc(C#N)cc2)NC(=O)N(CC(=O)c2ccc(Cl)s2)C1=O` (racemic), the chromatographic logD is 4.85.

In turn, `CC1(c2ccc(S(N)(=O)=O)cc2)NC(=O)N(CC(=O)c2cccc(C(F)(F)F)c2)C1=O` (racemic) yielded a chromatographic logD of 3.96.

Consider `CC1(c2ccc(S(N)(=O)=O)cc2)NC(=O)N(CC(=O)C23CC4CC(CC(C4)C2)C3)C1=O` (racemic), for which the chromatographic logD was found to be 2.52.

For `CC1(c2ccc(S(N)(=O)=O)cc2)NC(=O)N(CC(=O)c2ccc(F)c(Cl)c2)C1=O` (racemic), the chromatographic logD was 3.82.

On to `CC(=O)CN1C(=O)NC(C)(c2ccc(S(N)(=O)=O)cc2)C1=O` (racemic), for which the chromatographic logD is 0.54.

Regarding `CC1(c2ccc(S(N)(=O)=O)cc2)NC(=O)N(CC(=O)c2ccccc2C(F)(F)F)C1=O` (racemic), the chromatographic logD amounted to 3.56.

The molecule `CC1(c2ccc(S(N)(=O)=O)cc2)NC(=O)N(CC(=O)c2ccc3ccccc3c2)C1=O` (racemic) gave a chromatographic logD of 3.93.

In turn, `CNS(=O)(=O)c1ccc(C2(C)NC(=O)N(CC(=O)c3ccc(F)cc3F)C2=O)cc1` (racemic) yielded a chromatographic logD of 3.88.

For the molecule `CN(C)S(=O)(=O)c1ccc(C2(C)NC(=O)N(CC(=O)c3ccc(F)cc3F)C2=O)cc1` (racemic), the chromatographic logD was 4.6.

As for `CC1(c2ccc(C#N)cc2)NC(=O)N(CC(=O)c2ccccc2F)C1=O` (racemic), the chromatographic logD came to 4.3.

In turn, `CC1(c2ccc(NS(=O)(=O)C(F)(F)F)cc2)NC(=O)N(CC(=O)c2ccc(F)cc2F)C1=O` (racemic) registered a chromatographic logD of 3.24.

`CC1(c2ccc(S(N)(=O)=O)cc2)NC(=O)N(CC(=O)c2ncc(F)cc2F)C1=O` (racemic): the chromatographic logD came out at 2.39.

Consider `CC1(c2ccc(S(N)(=O)=O)cc2)NC(=O)N(CC(=O)c2nc3ccccc3s2)C1=O` (racemic), for which the chromatographic logD came out at 3.78.

Molecule `Cc1cccc(C(=O)CN2C(=O)NC(C)(c3ccc(S(N)(=O)=O)cc3)C2=O)c1` (racemic) registered a chromatographic logD of 3.36.

Take `CC1(c2ccc3c(c2)NC(=O)CO3)NC(=O)N(CC(=O)c2ccc(F)cc2F)C1=O` (racemic): the chromatographic logD came out at 3.38.

`CC1(c2ccc(S(N)(=O)=O)cc2)NC(=O)N(CC(=O)c2cccnc2)C1=O` (racemic) yielded a chromatographic logD of 3.48. The chromatographic logD values of the last two molecules are within 0.2 log units of each other.

With `CC1(c2ccc(-c3nnn[nH]3)cc2)NC(=O)N(CC(=O)c2ccc(F)cc2F)C1=O` (racemic), the chromatographic logD came to 1.85.

`CC1(c2ccc(CS(C)(=O)=O)cc2)NC(=O)N(CC(=O)c2ccc(F)cc2F)C1=O` (racemic) came in with a chromatographic logD of 3.54.

Molecule `CC1(c2ccc(S(N)(=O)=O)cc2)NC(=O)N(CC(=O)c2ccncc2)C1=O` (racemic) had a chromatographic logD of 2.46.

`CC1(c2ccc(NC(N)=O)cc2)NC(=O)N(CC(=O)c2ccc(F)cc2F)C1=O` (racemic) showed a chromatographic logD of 2.71.

In turn, `CC1(c2ccc(C#N)cc2)NC(=O)N(CC(=O)c2ccc(F)c(C(F)(F)F)c2)C1=O` (racemic) showed a chromatographic logD of 5.38.

Consider `CC1(c2ccc(S(N)(=O)=O)cc2)NC(=O)N(CC(=O)c2ccc(Cl)s2)C1=O` (racemic), for which the chromatographic logD came out at 3.52.

`CC1(c2ccc(S(N)(=O)=O)cc2)NC(=O)N(CC(=O)c2ccc(Cl)cc2Cl)C1=O` (racemic) registered a chromatographic logD of 4.11.

The molecule `CC1(c2ccc(S(N)(=O)=O)cc2)NC(=O)N(CC(=O)C2CC2)C1=O` (racemic) showed a chromatographic logD of 1.51.

In turn, `CC1(c2ccc(S(N)(=O)=O)cc2)NC(=O)N(CC(=O)c2ccc(C(F)(F)F)cc2)C1=O` (racemic) yielded a chromatographic logD of 4.15.

Turning to `CC1(c2ccc(S(N)(=O)=O)cc2)NC(=O)N(CC(=O)c2nccs2)C1=O` (racemic), the chromatographic logD was 1.9.

Regarding `CC1(c2ccc(S(N)(=O)=O)cc2)NC(=O)N(CC(=O)c2cccc(F)c2)C1=O` (racemic), the chromatographic logD came out at 3.08.

`COc1ccccc1C(=O)CN1C(=O)NC(C)(c2ccc(S(N)(=O)=O)cc2)C1=O` (racemic) registered a chromatographic logD of 2.98.

As for `Cc1ccc(C(=O)CN2C(=O)NC(C)(c3ccc(S(N)(=O)=O)cc3)C2=O)cc1` (racemic), the chromatographic logD amounted to 3.33.

The molecule `CC1(c2ccc(S(N)(=O)=O)cc2)NC(=O)N(CC(=O)c2ccccc2)C1=O` (racemic) yielded a chromatographic logD of 2.81.

The molecule `CC1(c2ccc(S(N)(=O)=O)cc2)NC(=O)N(CC(=O)c2cccc(OC(F)(F)F)c2)C1=O` (racemic) returned a chromatographic logD of 4.14.

Turning to `CC1(c2ccc(C#N)cc2)NC(=O)N(CC(=O)c2cccc(F)c2)C1=O` (racemic), the chromatographic logD amounted to 4.39.

As to `Cc1ccccc1C(=O)CN1C(=O)NC(C)(c2ccc(S(N)(=O)=O)cc2)C1=O` (racemic), the chromatographic logD is 3.3.

For `COc1ccc(C(=O)CN2C(=O)NC(C)(c3ccc(S(N)(=O)=O)cc3)C2=O)cc1` (racemic), the chromatographic logD worked out at 2.86.

Take `CC1(c2ccc(S(N)(=O)=O)cc2)NC(=O)N(CC(=O)c2cccc(C#N)c2)C1=O` (racemic): the chromatographic logD amounted to 2.4.

As for `CC1(c2ccc(S(N)(=O)=O)cc2)NC(=O)N(CC(=O)c2ccccn2)C1=O` (racemic), the chromatographic logD is 4.87.

Molecule `Cc1ccccc1C(=O)CN1C(=O)NC(C)(c2ccc(C#N)cc2)C1=O` (racemic) showed a chromatographic logD of 4.73.

In turn, `CC1(c2ccc(S(=O)(=O)NCC(F)(F)F)cc2)NC(=O)N(CC(=O)c2ccc(F)cc2F)C1=O` (racemic) returned a chromatographic logD of 4.78. The chromatographic logD values of the last two molecules are within 0.2 log units of each other.

In the case of `COc1cccc(C(=O)CN2C(=O)NC(C)(c3ccc(S(N)(=O)=O)cc3)C2=O)c1` (racemic), the chromatographic logD is 3.

As to `CC1(c2ccc(S(N)(=O)=O)cc2)NC(=O)N(CC(=O)c2cccc([N+](=O)[O-])c2)C1=O` (racemic), the chromatographic logD was 2.77.

Molecule `CC(C)(C)C(=O)Oc1cc(F)ccc1C(=O)CN1C(=O)NC(C)(c2ccc(C#N)cc2)C1=O` (racemic) yielded a chromatographic logD of 5.84.

`CC1(c2ccc(C(=O)O)cc2)NC(=O)N(CC(=O)c2ccc(F)cc2F)C1=O` (racemic): the chromatographic logD worked out at 1.49.

As to `CC1(c2ccc(C#N)cc2)NC(=O)N(CC(=O)c2ccccn2)C1=O` (racemic), the chromatographic logD came out at 2.03.

With `CC1(c2ccc(C(N)=O)cc2)NC(=O)N(CC(=O)c2ccc(F)cc2F)C1=O` (racemic), the chromatographic logD came out at 2.68.

Take `CC1(c2ccc(C#N)cc2)NC(=O)N(CC(=O)c2ccc(F)cc2O)C1=O` (racemic): the chromatographic logD was found to be 4.56.

In turn, `Cc1cccc(C(=O)CN2C(=O)NC(C)(c3ccc(C#N)cc3)C2=O)c1` (racemic) showed a chromatographic logD of 4.71.

The molecule `CC1(c2ccc(C#N)cc2)NC(=O)N(CC(=O)c2ccncc2)C1=O` (racemic) gave a chromatographic logD of 1.16.

Take `CC1(c2ccc(C#N)cc2)NC(=O)N(CC(=O)c2cccc(OC(F)(F)F)c2)C1=O` (racemic): the chromatographic logD stood at 5.5.

As for `CC1(c2ccc(S(N)(=O)=O)cc2)NC(=O)N(CC(=O)c2cccs2)C1=O` (racemic), the chromatographic logD turned out to be 2.35.

In turn, `CC1(c2ccc(N3CCCOC3=O)cc2)NC(=O)N(CC(=O)c2ccc(F)cc2F)C1=O` (racemic) returned a chromatographic logD of 3.36.

Take `CC1(c2ccc(S(=O)(=O)NC3CC3)cc2)NC(=O)N(CC(=O)c2ccc(F)cc2F)C1=O` (racemic): the chromatographic logD amounted to 4.48.

Turning to `CC1(c2ccc(S(N)(=O)=O)cc2)NC(=O)N(CC(=O)c2ccc(F)cc2O)C1=O` (racemic), the chromatographic logD came out at 3.12.

`Cc1ccc(C(=O)CN2C(=O)NC(C)(c3ccc(C#N)cc3)C2=O)cc1` (racemic): the chromatographic logD came to 4.73.

`CC1(c2ccc(S(N)(=O)=O)cc2)NC(=O)N(CC(=O)c2ccc(F)c(C(F)(F)F)c2)C1=O` (racemic) returned a chromatographic logD of 4.24.

Molecule `COC(=O)c1ccc(C2(C)NC(=O)N(CC(=O)c3ccc(F)cc3F)C2=O)cc1` (racemic) registered a chromatographic logD of 4.84.

Take `CC1(c2ccc(C#N)cc2)NC(=O)N(CC(=O)c2cccnc2)C1=O` (racemic): the chromatographic logD is 1.16.

As to `CC1(c2ccc(S(N)(=O)=O)cc2)NC(=O)N(CC(=O)c2ccc(F)cc2)C1=O` (racemic), the chromatographic logD was 3.03.

In turn, `CC1(c2ccc(NS(=O)(=O)c3ccccc3)cc2)NC(=O)N(CC(=O)c2ccc(F)cc2F)C1=O` (racemic) gave a chromatographic logD of 4.9.

`CC1(c2ccc(S(N)(=O)=O)cc2)NC(=O)N(CC(=O)c2ccccc2F)C1=O` (racemic) had a chromatographic logD of 2.94.

`CC1(c2ccc(C#N)cc2)NC(=O)N(CC(=O)c2ccccc2)C1=O` (racemic) registered a chromatographic logD of 4.19.

For the molecule `CC1(c2ccc(S(N)(=O)=O)cc2)NC(=O)N(CC(=O)C2CCCCC2)C1=O` (racemic), the chromatographic logD was determined as 3.62.

`CC1(c2ccc(S(N)(=O)=O)cc2)NC(=O)N(CC(=O)c2ccc(C#N)cc2)C1=O` (racemic) yielded a chromatographic logD of 2.54.

Molecule `CC1(c2ccc(S(=O)(=O)N3CCOCC3)cc2)NC(=O)N(CC(=O)c2ccc(F)cc2F)C1=O` (racemic) had a chromatographic logD of 4.39.

Molecule `CC1(c2ccc(S(N)(=O)=O)cc2)NC(=O)N(CC(=O)c2ccc(F)c(F)c2)C1=O` (racemic) gave a chromatographic logD of 3.34.

For `CC1(c2ccc(S(N)(=O)=O)cc2)NC(=O)N(CC(=O)c2cc(C(F)(F)F)cc(C(F)(F)F)c2)C1=O` (racemic), the chromatographic logD came out at 4.9.

Molecule `CC1(c2ccc(S(N)(=O)=O)cc2)NC(=O)N(CC(=O)c2cccc(Br)c2)C1=O` (racemic) returned a chromatographic logD of 3.77.

As usually defined, the chromatographic logD is a lipophilicity value derived from retention on a column. A low value points to a more hydrophilic compound.
